Laboratory results published in US6703400B2, “Methods for treating multidrug resistance” (Schering Corporation, priority 2001, dated 2004).
Where two headings read alike, the source gives them in different places.

Tests used:
[1] = molecular target: MDR1 gene product transport enzyme (P-gp) in CR1R12 cell membranes (Cricetulus griseus, UniProt P21448); assay: P-gp-mediated ATP hydrolysis (phosphate release) assay with CR1R12 membrane microsomes; assay type: biochemical, rodent
From the text: ATP hydrolysis as nmol/min/mg is plotted against SCH66336 concentration.
The second Example monitored the consumption of ATP, a high-energy biological energy source required for transporter enzyme function. ATP is converted to two other chemicals—ADP and inorganic phosphate—during the P-gp mediated transport porcess.
The method was modified to be carried out in a 96-well microplate.
CR1R12 cell membranes enriched with the MDR1 gene product transport enzyme were used for preparation of membrane microsomes. Cells were washed with complete Hanks' buffer before being resuspended in 10 ml lysis buffer (Tris-25 HCl, 50 mM; mannitol, 50 mM; EGTA, 2 mM; and dithiothreitol, 2 mM; pH 7.0 at 25° C.) containing protease inhibitors (phenylmethylsulfonyl fluoride, 1 mM; aprotinin, 10 μg/ml; leupeptin, 10 μg/ml). All subsequent steps were performed at 4° C. The cells were lysed by nitrogen cavitation (Parr Instrument Co., Moline, Ill.) at 500 psi for 15 min twice. Nuclei and mitochondria were sedimented by centrifugation at 4000×g for 10 min. The microsomal membrane fraction was then sedimented by centrifugation at 100,000×g for 60 min. […] Aliquots of membrane microsomes were rapidly frozen and stored at −80 ° C. until analysis.
The microsomes were thawed on ice prior to diluting to 3.5 μg protein per well in ice-cold ATPase buffer (sodium ATP, 3 mM; KCl, 50 mM; MgSO4, 10 mM; dithiothreitol, 3 mM; Tris-HCl, 50 mM; pH 7.0) containing 0.5 mM EGTA (to inhibit Ca-ATPase), 0.5 mM ouabain (to inhibit the Na/K-ATPase), and 3 mM sodium azide (to inhibit the mitochondrial ATPase). The total incubation volume including the various inhibitors was 100 μl. The incubation reaction was initiated by transferring the plate from ice to 37° C. and incubating for 30 min; the reaction was terminated by the addition of 50 μl 12% SDS solution at room temperature, followed by the addition of 50 μl of a mixture solution of (equal volumes) 18% fresh ascorbic acid in 1N HCl and 3% ammonium molybdate in 1 N HCl. After 4 min, 100 μl of a solution of 2% sodium citrate and 2% sodium meta-arsenite in 2% acetic acid was added to fix the color formation. […] The respective values for background with ATPase assay buffer alone were obtained in parallel and subtracted from the values for experimental samples.

[2] = molecular target: T1, P-gp efflux pump in CR1R12 cells (Cricetulus griseus, UniProt P21448); assay: cell-based
T1 sequence (P21448 whole entry): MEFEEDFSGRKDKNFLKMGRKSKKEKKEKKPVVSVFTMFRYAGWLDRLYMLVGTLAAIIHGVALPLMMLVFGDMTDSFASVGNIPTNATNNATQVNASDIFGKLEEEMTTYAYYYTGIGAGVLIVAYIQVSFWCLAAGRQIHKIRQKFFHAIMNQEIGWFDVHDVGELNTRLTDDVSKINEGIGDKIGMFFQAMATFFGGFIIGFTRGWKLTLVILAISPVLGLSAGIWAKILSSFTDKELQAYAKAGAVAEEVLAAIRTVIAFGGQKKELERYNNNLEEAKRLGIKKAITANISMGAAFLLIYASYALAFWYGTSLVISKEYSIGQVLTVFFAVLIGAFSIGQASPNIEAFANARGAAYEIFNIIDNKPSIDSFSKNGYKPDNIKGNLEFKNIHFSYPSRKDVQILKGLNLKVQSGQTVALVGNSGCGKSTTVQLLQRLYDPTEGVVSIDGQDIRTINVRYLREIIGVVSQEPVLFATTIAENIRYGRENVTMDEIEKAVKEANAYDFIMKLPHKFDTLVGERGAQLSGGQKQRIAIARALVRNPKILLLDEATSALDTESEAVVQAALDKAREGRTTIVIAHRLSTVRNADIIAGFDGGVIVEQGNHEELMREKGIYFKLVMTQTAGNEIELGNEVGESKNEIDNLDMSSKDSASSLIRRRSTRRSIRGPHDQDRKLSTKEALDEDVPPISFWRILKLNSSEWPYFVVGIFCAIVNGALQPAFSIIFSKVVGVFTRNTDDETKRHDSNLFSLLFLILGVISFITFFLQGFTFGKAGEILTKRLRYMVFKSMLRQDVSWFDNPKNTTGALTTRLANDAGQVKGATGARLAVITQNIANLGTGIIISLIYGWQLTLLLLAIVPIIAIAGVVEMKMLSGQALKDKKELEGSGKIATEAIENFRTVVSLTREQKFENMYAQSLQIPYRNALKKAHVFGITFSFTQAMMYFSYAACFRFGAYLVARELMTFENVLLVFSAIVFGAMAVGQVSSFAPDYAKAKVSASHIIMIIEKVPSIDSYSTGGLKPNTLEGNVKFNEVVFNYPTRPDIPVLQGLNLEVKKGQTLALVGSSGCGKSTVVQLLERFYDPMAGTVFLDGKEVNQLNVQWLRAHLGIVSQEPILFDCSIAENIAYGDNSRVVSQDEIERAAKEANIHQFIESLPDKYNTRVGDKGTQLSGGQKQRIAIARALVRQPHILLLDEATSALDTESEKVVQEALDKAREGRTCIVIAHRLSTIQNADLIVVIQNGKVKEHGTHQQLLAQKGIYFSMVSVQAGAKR
Method: (§1) The efflux phase or incubation was 30 min in all cases. The average number of cells per assay was 10,000. The function for the line through the data is the Hill equation: v=VmaxSn/(K′+Sn). The parameters IC50 and the Hill coefficient along with the standard deviation are shown on the respective graphs.
(§2) CR1R12 cell line, provided by Dr. Alan Senior (Univ. of Rochester), was maintained in complete α-minimum essential medium (α-MEM) supplemented with 10% FBS, penicillin/streptomycin (50 units/50 μg/ml) in a 5% CO2-95% air atmosphere at 37° C. Colchicine (0.5 μg/ml) was added to the culture medium. Cells were grown to 80-90% confluency and treated with trypsin-EDTA before subculturing.
(§3) Fluorescence measurements of individual cells were performed using a Becton-Dickinson FACScalibur fluorescence-activated cell sorter (San Jose, Calif.), equipped with an ultraviolet argon laser (excitation at 488 nm, emission at 530/30 and 570/30 nm band-pass filters). […]
(§4) Cell viability was assessed using exclusion of 0.4% trypan blue as well as propidium iodide staining. Dead cells in which propidium iodide was bound to double strands of DNA or RNA were detected in certain regions of the cytometry dot plots and not included in the final data calculations.
(§5) The DNR fluorescence intensity of individual cells was recorded as histograms. […]

[3] = molecular target: T2, gene product of human MDR1 (P-gp) in NIH 3T3 G185 cells (Homo sapiens, UniProt P08183); assay: cell-based
T2 sequence (P08183 whole entry): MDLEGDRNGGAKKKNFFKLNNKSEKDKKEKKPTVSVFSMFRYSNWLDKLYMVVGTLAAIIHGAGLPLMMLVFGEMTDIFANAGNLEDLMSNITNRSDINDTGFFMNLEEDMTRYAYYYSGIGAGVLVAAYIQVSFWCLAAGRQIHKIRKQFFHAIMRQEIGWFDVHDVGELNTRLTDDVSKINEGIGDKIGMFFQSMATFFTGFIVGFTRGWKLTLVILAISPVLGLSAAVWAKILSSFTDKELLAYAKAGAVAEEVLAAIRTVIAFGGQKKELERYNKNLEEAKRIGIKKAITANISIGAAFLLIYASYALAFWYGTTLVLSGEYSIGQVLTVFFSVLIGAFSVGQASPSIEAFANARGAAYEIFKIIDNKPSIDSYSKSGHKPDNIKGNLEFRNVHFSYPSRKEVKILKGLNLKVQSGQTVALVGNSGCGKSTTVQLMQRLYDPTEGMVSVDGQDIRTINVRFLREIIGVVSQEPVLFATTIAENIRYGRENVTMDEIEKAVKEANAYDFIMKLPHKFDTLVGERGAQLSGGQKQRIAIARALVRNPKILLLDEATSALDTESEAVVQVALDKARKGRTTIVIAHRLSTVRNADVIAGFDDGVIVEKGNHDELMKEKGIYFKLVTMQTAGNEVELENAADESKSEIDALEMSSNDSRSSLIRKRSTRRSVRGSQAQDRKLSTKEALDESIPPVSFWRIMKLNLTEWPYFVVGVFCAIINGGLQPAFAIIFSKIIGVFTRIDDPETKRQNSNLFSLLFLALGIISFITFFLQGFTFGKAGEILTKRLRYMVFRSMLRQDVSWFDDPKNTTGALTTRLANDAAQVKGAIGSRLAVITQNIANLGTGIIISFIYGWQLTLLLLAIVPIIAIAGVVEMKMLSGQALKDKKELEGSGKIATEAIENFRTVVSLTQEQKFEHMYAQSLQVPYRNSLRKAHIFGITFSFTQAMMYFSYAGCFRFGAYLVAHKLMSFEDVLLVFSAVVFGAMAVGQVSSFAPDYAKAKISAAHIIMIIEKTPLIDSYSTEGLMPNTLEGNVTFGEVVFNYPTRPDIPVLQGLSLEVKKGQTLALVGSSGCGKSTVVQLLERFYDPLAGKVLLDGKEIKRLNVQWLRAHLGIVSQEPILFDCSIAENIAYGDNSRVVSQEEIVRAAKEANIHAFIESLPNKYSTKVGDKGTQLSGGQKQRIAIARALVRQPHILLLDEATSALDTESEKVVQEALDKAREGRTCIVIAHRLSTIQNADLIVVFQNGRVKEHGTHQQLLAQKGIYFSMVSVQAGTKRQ
Method: (§6) The efflux phase or incubation was 30 min in all cases. The average number of cells per assay was 10,000.
(§7) CR1R12 cell line, provided by Dr. Alan Senior (Univ. of Rochester), was maintained in complete α-minimum essential medium (α-MEM) supplemented with 10% FBS, penicillin/streptomycin (50 units/50 μg/ml) in a 5% CO2-95% air atmosphere at 37° C. Colchicine (0.5 μg/ml) was added to the culture medium. Cells were grown to 80-90% confluency and treated with trypsin-EDTA before subculturing. The NIH 3T3 G185 cell line presenting the gene product of human MDR1 was licensed from NIH and maintained in DMEM.
(§8) Fluorescence measurements of individual cells were performed using a Becton-Dickinson FACScalibur fluorescence-activated cell sorter (San Jose, Calif.), equipped with an ultraviolet argon laser (excitation at 488 nm, emission at 530/30 and 570/30 nm band-pass filters). Analysis was gated to include single cells on the basis of forward and side light-scatter and was based on acquisition of data from 10,000 cells. […] A direct functional assay for the P-gp efflux pump in CR1R12 cells was performed with the flow cytometer (Wang et al., 2000).
as §4
(§9) The DNR fluorescence intensity of individual cells was recorded as histograms. The mean fluorescence intensity of 10,000 cells was used for comparison among different conditions. Vanadate was selected as a positive control to normalize the measurements because it can maximally inactivate the P-gp efflux pump. Relative fluorescence was used for quantitation and comparison among different compounds. The relative fluorescence (% inactivation) represents a ratio obtained through the following formula: the geometric mean fluorescence of a discrete sample divided by the geometric mean fluorescence in the presence of 5 mM vanadate, times 100, or expressed as [formula]

[4] = molecular target: T1, P-gp efflux pump in CR1R12 cells; details: compared with verapamil
Method: as §1, §2, §3, §4, §5

P-gp (human MDR1) = P-gp (human MDR1) (Homo sapiens, UniProt P08183); assay: in vitro
P-gp (human MDR1), sequence (P08183 whole entry): as above
Method: as §6, §7, §8, §4, §9

P-gp = P-gp (Cricetulus griseus, UniProt P21448); assay: Retention of rhodamine 123 (Rho), fluorescent P-gp substrate, in cells
Method: as §8, §9

[5] = molecular target: T2, gene product of human MDR1 (P-gp) in NIH 3T3 G185 cells; details: IC50 G185 vs IC50 CR1R12
Method: as §6, §7, §8, §4, §9

MDR1 gene product transport enzyme (P-gp) in CR1R12 cell membranes, sequence (P21448 whole entry): as the sequence (P21448 whole entry) above

Question: With CC(=O)[C@H]1CC[C@H]2[C@@H]3CCC4=CC(=O)CC[C@]4(C)[C@H]3CC[C@]12C [Progesterone, reference compound] as the compound, how does the Vmax % control ([1]; ATP hydrolysis, Table 1) read?
Answer: 236 % control

Question: For C=C[C@H]1C[N@@]2CC[C@H]1C[C@@H]2[C@@H](O)c1ccnc2ccc(OC)cc12 [Quinidine, quinidine, reference compound], which Vmax % control [1] is on record?
Answer: 239 % control

Question: How did the Vmax % control ([1]; ATP hydrolysis, Table 1) turn out when COc1cccc2c1C(=O)c1c(O)c3c(c(O)c1C2=O)C[C@@](O)(C(C)=O)C[C@@H]3O[C@H]1C[C@H](N)[C@H](O)[C@H](C)O1 [Daunorubicin, reference compound] was run?
Answer: 170 % control

Question: Which IC50 [2] does the source give for NC(=O)N1CCC(CC(=O)N2CCC(C3c4ncc(Br)cc4CCc4cc(Cl)cc(Br)c43)CC2)CC1 (stereo not drawn) [SCH66336] here?
Answer: ~9 µM

Question: What about the IC50 [3] of the same compound?
Answer: ~3 µM

Question: And the “effect on rate of ATP hydrolysis relative to baseline rate” value [1]?
Answer: concentration-dependent decrease

Question: What about the Vmax ([1]; ATP hydrolysis, Example B results text) of the same compound?
Answer: ~28 % baseline

Question: And the Vmax ([1]; ATP hydrolysis, FIG. 2 legend)?
Answer: 28 % of control

Question: What about the “extent of inhibition of DNR transport” value [4] of the same compound?
Answer: exceeding that of verapamil

Question: And the IC50 at 30 min (P-gp (human MDR1))?
Answer: < 3 µM

Question: What about the IC50 (P-gp) of the same compound?
Answer: ~11 µM

Question: And the “potency in G185 cells relative to CR1R12 cell line” value [5]?
Answer: three times as potent
